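Briefly, cells in 96-well plates were exposed to five compound concentrations for 48 h, and endpoints were estimated by linear interpolation. GI50 marks 50% less growth.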 Active and inactive are the calls of the source. Rule as the data show it: active = GI50 up to about 1.1 µM and inactive = higher.
Tests used:
Assay in all cases: NCI-60 cell line screen, 48 h
LOX IMVI = system: LOX IMVI
UO-31 = system: UO-31
SW-620 = system: SW-620
RPMI-8226 = system: RPMI-8226
KM12 = system: KM12
SK-MEL-5 = system: SK-MEL-5
SF-268 = system: SF-268
SN12C = system: SN12C
Malme-3M = system: Malme-3M
A549 = system: A549
SF-539 = system: SF-539
K562 = system: K562
MCF7 = system: MCF7
SF-295 = system: SF-295
SK-MEL-28 = system: SK-MEL-28
HOP-62 = system: HOP-62
OVCAR-4 = system: OVCAR-4
NCI-H522 = system: NCI-H522
HCT-116 = system: HCT-116
UACC-62 = system: UACC-62

With `CCOc1ccc(NC2=CC(=O)C(=O)c3ccccc32)cc1` the GI50 (LOX IMVI) was 1.3 µM (inactive), the GI50 (UO-31) was 4.45 µM (inactive) and the GI50 (SW-620) was 1.82 µM (inactive). The GI50 (RPMI-8226) was 4.47 µM (inactive), the GI50 (KM12) was 3.77 µM (inactive) and the GI50 (SK-MEL-5) was 1.59 µM (inactive). For the same compound, the GI50 (SF-268) was 6.25 µM (inactive), the GI50 (SN12C) was 1.82 µM (inactive) and the GI50 (Malme-3M) was 2.08 µM (inactive). For the same compound, the GI50 (A549) was 2.74 µM (inactive), the GI50 (SF-539) was 1.97 µM (inactive) and the GI50 (K562) was 5.07 µM (inactive). For the same compound, the GI50 (MCF7) was 2.15 µM (inactive), the GI50 (SF-295) was 2.61 µM (inactive) and the GI50 (SK-MEL-28) was 3.27 µM (inactive). For the same compound, the GI50 (HOP-62) was 3.88 µM (inactive), the GI50 (OVCAR-4) was 3.48 µM (inactive) and the GI50 (NCI-H522) was 1.81 µM (inactive). For the same compound, the GI50 (HCT-116) was 3.35 µM (inactive) and the GI50 (UACC-62) was 1.72 µM (inactive).

For `CC(CO)CCNc1ncnc2c1ncn2CCC(=O)O` (stereo not given), the GI50 (LOX IMVI) was > 100 µM (inactive), the GI50 (UO-31) was > 100 µM (inactive) and the GI50 (SW-620) was > 100 µM (inactive). The GI50 (RPMI-8226) was > 100 µM (inactive), the GI50 (KM12) was > 100 µM (inactive) and the GI50 (SK-MEL-5) was > 100 µM (inactive). For the same compound, the GI50 (SF-268) was > 100 µM (inactive), the GI50 (SN12C) was > 100 µM (inactive) and the GI50 (Malme-3M) was > 100 µM (inactive). The GI50 (A549) was > 100 µM (inactive), the GI50 (SF-539) was > 100 µM (inactive) and the GI50 (K562) was > 100 µM (inactive). For the same compound, the GI50 (MCF7) was > 100 µM (inactive), the GI50 (SF-295) was > 100 µM (inactive) and the GI50 (SK-MEL-28) was > 100 µM (inactive). For the same compound, the GI50 (HOP-62) was > 100 µM (inactive), the GI50 (OVCAR-4) was > 100 µM (inactive) and the GI50 (NCI-H522) was > 100 µM (inactive). The GI50 (HCT-116) was > 100 µM (inactive) and the GI50 (UACC-62) was > 100 µM (inactive).

With `CCCCCCCCCCCCCCCCNc1ccc2c(c1)OCCOCCOCCOCCO2` the GI50 (LOX IMVI) was 2.24 µM (inactive), the GI50 (UO-31) was 2.77 µM (inactive) and the GI50 (SW-620) was 3.37 µM (inactive). For the same compound, the GI50 (RPMI-8226) was 1.67 µM (inactive), the GI50 (KM12) was 2.06 µM (inactive) and the GI50 (SK-MEL-5) was 2.25 µM (inactive). For the same compound, the GI50 (SF-268) was 3.76 µM (inactive), the GI50 (SN12C) was 2.92 µM (inactive) and the GI50 (Malme-3M) was 3.56 µM (inactive). For the same compound, the GI50 (A549) was 3.78 µM (inactive), the GI50 (SF-539) was 2.32 µM (inactive) and the GI50 (K562) was 4.2 µM (inactive). The GI50 (MCF7) was 3.61 µM (inactive), the GI50 (SF-295) was 2.33 µM (inactive) and the GI50 (SK-MEL-28) was 6.28 µM (inactive). For the same compound, the GI50 (HOP-62) was 2.51 µM (inactive), the GI50 (OVCAR-4) was 4.02 µM (inactive) and the GI50 (NCI-H522) was 2.33 µM (inactive). For the same compound, the GI50 (HCT-116) was 3.04 µM (inactive) and the GI50 (UACC-62) was 2.97 µM (inactive).

With `CC1=NN(C(=O)c2ccccc2O)C(=O)/C1=C/c1ccccc1O` the GI50 (LOX IMVI) was 0.568 µM (active), the GI50 (UO-31) was 0.0634 µM (active) and the GI50 (SW-620) was 1.54 µM (inactive). For the same compound, the GI50 (RPMI-8226) was 0.931 µM (active), the GI50 (KM12) was 2.76 µM (inactive) and the GI50 (SK-MEL-5) was 1.06 µM (active). The GI50 (SF-268) was 0.445 µM (active), the GI50 (SN12C) was 0.579 µM (active) and the GI50 (Malme-3M) was 0.766 µM (active). The GI50 (A549) was 0.157 µM (active), the GI50 (SF-539) was 0.132 µM (active) and the GI50 (K562) was 0.0914 µM (active). For the same compound, the GI50 (MCF7) was 2.68 µM (inactive), the GI50 (SF-295) was 0.0736 µM (active) and the GI50 (SK-MEL-28) was 18.5 µM (inactive). The GI50 (HOP-62) was 0.236 µM (active), the GI50 (OVCAR-4) was 1.08 µM (active) and the GI50 (NCI-H522) was 0.497 µM (active). For the same compound, the GI50 (HCT-116) was 0.107 µM (active) and the GI50 (UACC-62) was 0.057 µM (active).

`N=c1oc2cc(O)ccc2cc1C(=O)Nc1ccccn1` was tested, and the GI50 (LOX IMVI) was 34.4 µM (inactive), the GI50 (UO-31) was 0.292 µM (active) and the GI50 (SW-620) was 77.1 µM (inactive). The GI50 (RPMI-8226) was 33.7 µM (inactive), the GI50 (KM12) was 55 µM (inactive) and the GI50 (SK-MEL-5) was 42.3 µM (inactive). For the same compound, the GI50 (SF-268) was 65.2 µM (inactive), the GI50 (SN12C) was 62.2 µM (inactive) and the GI50 (Malme-3M) was 47.2 µM (inactive). For the same compound, the GI50 (A549) was > 100 µM (inactive), the GI50 (SF-539) was 92.9 µM (inactive) and the GI50 (K562) was 26.5 µM (inactive). For the same compound, the GI50 (MCF7) was 14.9 µM (inactive), the GI50 (SF-295) was > 100 µM (inactive) and the GI50 (SK-MEL-28) was 76.7 µM (inactive). The GI50 (HOP-62) was > 100 µM (inactive), the GI50 (OVCAR-4) was 33 µM (inactive) and the GI50 (NCI-H522) was 3.43 µM (inactive). For the same compound, the GI50 (HCT-116) was 56.1 µM (inactive) and the GI50 (UACC-62) was 32.4 µM (inactive).

For `O=C(NNCc1ccco1)c1cc2ccccc2[nH]1`, the GI50 (LOX IMVI) was > 100 µM (inactive), the GI50 (UO-31) was > 74.6 µM (inactive) and the GI50 (SW-620) was > 100 µM (inactive). The GI50 (RPMI-8226) was > 100 µM (inactive), the GI50 (KM12) was 65.8 µM (inactive) and the GI50 (SK-MEL-5) was > 100 µM (inactive). For the same compound, the GI50 (SF-268) was 38.8 µM (inactive), the GI50 (SN12C) was > 61 µM (inactive) and the GI50 (Malme-3M) was > 100 µM (inactive). For the same compound, the GI50 (A549) was > 100 µM (inactive), the GI50 (SF-539) was > 61.9 µM (inactive) and the GI50 (K562) was > 100 µM (inactive). For the same compound, the GI50 (MCF7) was 0.133 µM (active), the GI50 (SF-295) was 91.8 µM (inactive) and the GI50 (SK-MEL-28) was > 100 µM (inactive). The GI50 (HOP-62) was > 52.6 µM (inactive), the GI50 (OVCAR-4) was > 39.1 µM (inactive) and the GI50 (NCI-H522) was 34.3 µM (inactive). For the same compound, the GI50 (HCT-116) was > 86.1 µM (inactive) and the GI50 (UACC-62) was > 100 µM (inactive).

For `O=C1C=C(Nc2ccccc2C(=O)CC(=O)C(=O)Nc2cccc(C(F)(F)F)c2)c2ccccc2C1=O`, the GI50 (LOX IMVI) was 6.04 µM (inactive), the GI50 (UO-31) was 31.2 µM (inactive) and the GI50 (SW-620) was 27.6 µM (inactive). The GI50 (RPMI-8226) was 17.6 µM (inactive), the GI50 (KM12) was 24 µM (inactive) and the GI50 (SK-MEL-5) was 15.8 µM (inactive). For the same compound, the GI50 (SF-268) was 17.2 µM (inactive), the GI50 (SN12C) was 17.1 µM (inactive) and the GI50 (Malme-3M) was 15.1 µM (inactive). The GI50 (A549) was 46.5 µM (inactive), the GI50 (SF-539) was 22.5 µM (inactive) and the GI50 (K562) was 8.32 µM (inactive). The GI50 (MCF7) was 15.2 µM (inactive), the GI50 (SF-295) was 21.3 µM (inactive) and the GI50 (SK-MEL-28) was 24.1 µM (inactive). The GI50 (HOP-62) was 40 µM (inactive), the GI50 (OVCAR-4) was 17.9 µM (inactive) and the GI50 (NCI-H522) was 23.1 µM (inactive). For the same compound, the GI50 (HCT-116) was 23 µM (inactive) and the GI50 (UACC-62) was 15.8 µM (inactive).

With `Nc1nc(N)c2nc(CNc3ccc(C(=O)O)cc3)[nH]c2n1` the GI50 (LOX IMVI) was > 100 µM (inactive), the GI50 (UO-31) was > 100 µM (inactive) and the GI50 (SW-620) was > 100 µM (inactive). The GI50 (RPMI-8226) was > 100 µM (inactive), the GI50 (KM12) was > 100 µM (inactive) and the GI50 (SK-MEL-5) was > 100 µM (inactive). For the same compound, the GI50 (SF-268) was > 100 µM (inactive), the GI50 (SN12C) was > 100 µM (inactive) and the GI50 (Malme-3M) was > 100 µM (inactive). The GI50 (A549) was > 100 µM (inactive), the GI50 (SF-539) was > 100 µM (inactive) and the GI50 (K562) was > 100 µM (inactive). For the same compound, the GI50 (MCF7) was > 100 µM (inactive), the GI50 (SF-295) was > 100 µM (inactive) and the GI50 (SK-MEL-28) was > 100 µM (inactive). For the same compound, the GI50 (HOP-62) was > 100 µM (inactive), the GI50 (OVCAR-4) was > 100 µM (inactive) and the GI50 (NCI-H522) was > 100 µM (inactive). The GI50 (HCT-116) was > 100 µM (inactive) and the GI50 (UACC-62) was > 100 µM (inactive).

`CC(C)(C)c1ccc(CN2CCN(C(c3ccccc3)c3ccc(Cl)cc3)CC2)cc1` (stereo not given) was tested, and the GI50 (LOX IMVI) was 34.4 µM (inactive), the GI50 (UO-31) was 63.5 µM (inactive) and the GI50 (SW-620) was > 100 µM (inactive). For the same compound, the GI50 (RPMI-8226) was 33.3 µM (inactive), the GI50 (KM12) was 78 µM (inactive) and the GI50 (SK-MEL-5) was 27 µM (inactive). The GI50 (SF-268) was 77.6 µM (inactive), the GI50 (SN12C) was > 100 µM (inactive) and the GI50 (Malme-3M) was 45.6 µM (inactive). For the same compound, the GI50 (A549) was 32.5 µM (inactive), the GI50 (SF-539) was 30.3 µM (inactive) and the GI50 (K562) was 36.6 µM (inactive). The GI50 (MCF7) was 40.6 µM (inactive), the GI50 (SF-295) was 37.9 µM (inactive) and the GI50 (SK-MEL-28) was 65.5 µM (inactive). The GI50 (HOP-62) was > 100 µM (inactive), the GI50 (OVCAR-4) was > 100 µM (inactive) and the GI50 (NCI-H522) was 23.4 µM (inactive). For the same compound, the GI50 (HCT-116) was 25.7 µM (inactive) and the GI50 (UACC-62) was > 100 µM (inactive).

— ChEMBL document CHEMBL1201862, “PubChem BioAssay data set” (2004)
